Tests used:
Format in all cases: in vivo
Rhipicephalus microplus [1] = test: Rhipicephalus (Boophilus) microplus in-vitro contact test, larval cattle tick, strain Parkhurst (BOOPMI Cont); details: application rate 5 μg/cm^2 (=500 g/ha), tick larvae, after 48 hours, read-out: activity (efficacy: 100% means all larvae are dead or moribund)
Procedure, shortened: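 Acetone solutions dried onto glass tube walls (900 ppm giving 5 μg/cm^2); 20-50 pyrethroid-resistant Parkhurst larvae added per tube and held 48 h at 27° C., 85% relative humidity. Efficacy scored by negative geotaxis as % dead or moribund larvae.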

Ctenocephalides felis [2] = test: Ctenocephalides felis in-vitro contact test, adult cat flea (CTECFE Cont); details: application rate 5 μg/cm^2 (=500 g/ha), adult cat fleas, after 48 hours, read-out: activity (efficacy: 100% means all fleas are dead or moribund)
Procedure, shortened: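 Acetone solutions coated on glass tube inner walls (900 ppm giving 5 μg/cm^2), then 5-10 adult fleas added and held 48 h at room temperature. Fleas unable to escape a 45-50° C. heating plate within 5 min scored dead or moribund; efficacy = % dead/moribund.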

Rhipicephalus sanguineus = Rhipicephalus sanguineus in-vitro contact test, adult brown dog ticks (RHIPSA Cont); details: 48 h, after 48 hours, read-out: activity (efficacy: 100% means all ticks are dead or moribund); for pest or weed control at 5 µg/cm2, 500 g/ha: application rate 5 μg/cm^2 (=500 g/ha); for pest or weed control at 1 µg/cm2, 100 g/ha: application rate 1 μg/cm^2 (=100 g/ha)
Procedure, shortened: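 Mortality of adult R. sanguineus was judged 48 h after contact with acetone-applied residues on glass tube walls. Ticks that stayed immotile or moved without coordination when heated to 45–50 °C (max 5 min) counted as dead or moribund.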

Nezara viridula = Nezara viridula spray test; details: in Hordeum vulgare, 96 h, barley plants, larvae, after 4 days; for mortality at 100 g/ha: application rate 100 g/ha; for mortality at 500 g/ha: application rate 500 g/ha
Method: Nezara viridula—Spray Test Solvent: 78.0 parts by weight of acetone • • 1.5 parts by weight of dimethylformamide Emulsifier: alkylarylpolyglycol ether
To produce a suitable preparation of active compound, 1 part by weight of active compound is mixed with the stated amount of solvent, and the concentrate is diluted with water, containing an emulsifier concentration of 1000 ppm, to the desired concentration. Further test concentrations are prepared by dilution with emulsifier containing water.
Barley plants (Hordeum vulgare) infested with larvae of the southern green stink bug (Nezara viridula) are sprayed with a test solution containing the desired concentration of the active ingredient.
After 4 days mortality in % is determined. 100% means all the stink bugs have been killed; 0% means none of the stink bugs have been killed.

Myzus persicae [3] = test: Myzus persicae oral test; details: 120 h, read-out: activity (mortality)
Procedure, shortened: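 Percent mortality was recorded at day 5, where 0% means no aphids killed. Compound prepared from an acetone concentrate diluted in water and combined with IPL41 medium containing sugar was offered to mixed-stage green peach aphids, which sucked it through a parafilm seal.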

Diabrotica balteata = Diabrotica balteata spray test; details: 168 h, wheat seeds, larvae, after 7 days, read-out: activity (efficacy: 100% means all seedlings have grown up like in the untreated, uninfected control); for pest or weed control at 32 µg/disc, 100 g/ha: application rate 100 g/ha (=32 μg/well)
Procedure, shortened: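 Wheat seedlings, germinated 1 day on agar, were sprayed with compound in acetone/DMF diluted in water containing emulsifier, then infested with 10-20 Diabrotica balteata larvae. After 7 days efficacy in % was scored: 100% means seedlings grew like the untreated, uninfected control; 0% means none grew.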

Spodoptera frugiperda = Spodoptera frugiperda spray test; details: in Zea mays, 168 h, read-out: activity (mortality)
Procedure, shortened: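 Maize leaf sections were sprayed with compound formulated in acetone/DMF and diluted in water containing 1000 ppm emulsifier. Dried leaves were infested with fall armyworm larvae, and percent mortality was scored after 7 days.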

Myzus persicae [4] = test: Myzus persicae spray test; details: in Brassica rapa, foliar, 120 h; for mortality at 100 g/ha: read-out: activity (mortality), application rate 100 g/ha, spray, Chinese cabbage leaf disks, after 5 days
Method: Myzus persicae—Spray Test Solvent: 78.0 parts by weight acetone • 1.5 parts by weight dimethylformamide Emulsifier: alkylarylpolyglycol ether To produce a suitable preparation of active compound, 1 part by weight of active compound is mixed with the stated amount of solvents and is diluted with water, containing an emulsifier concentration of 1000 ppm, to the desired concentration. Further test concentrations are prepared by dilution with emulsifier containing water.
Chinese cabbage (Brassica pekinensis) leaf disks infected with all instars of the green peach aphid (Myzus persicae), are sprayed with a preparation of the active ingredient of the desired concentration.
After 5 days mortality in % is determined. 100% means all aphids have been killed and 0% means none of the aphids have been killed.

Rhipicephalus microplus [5] = test: Rhipicephalus (Boophilus) microplus injection test (BOOPMI Inj); details: 168 h, injection into adult engorged female ticks, egg deposition after 7 days, read-out: activity (efficacy: 100% means all eggs are infertile); for pest or weed control at 0.004 mg: application rate 4 μg/tick; for pest or weed control at 0.02 mg: application rate 20 μg/tick
Procedure, shortened: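 Five engorged adult female R. microplus ticks injected into the abdomen with 1 μL of compound diluted in DMSO, then kept in a climate chamber. Fertile egg deposition checked after 7 days; eggs without visible fertility held until hatching at about 42 days. Efficacy: 100% = all eggs infertile, 0% = all fertile.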

Ctenocephalides felis [6] = test: Ctenocephalides felis oral test (CTECFE Oral); details: 48 h, read-out: activity (mortality)
Procedure, shortened: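 About 20 unfed adult cat fleas fed through parafilm on cattle blood containing compound (DMSO concentrate diluted in blood to the desired concentration). Blood held at 37 °C, fleas at room temperature. Mortality (%) scored after 2 days.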

[7] = test system: Aedes aegypti strain MONHEIM; test: Aedes aegypti test (AEDSAE surface treatment & contact assay); details: surface concentration 20 mg/m^2, glazed tile, exposure 30 minutes, 24 hours after contact, read-out: efficacy (mortality)
Procedure, shortened: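 Compound dissolved in acetone (2 mg/ml) with 2000 ppm rapeseed oil methyl ester, pipetted onto glazed tile and dried. Adult mosquitoes exposed on the surface for 30 min; percent mortality scored 24 h after contact.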

[8] = test system: Musca domestica strain WHO—N; test: Musca domestica test (MUSCDO surface treatment & contact assay); details: exposure 30 minutes, 24 hours after contact, read-out: efficacy (mortality); for mortality at 4 mg/m2: surface concentration 4 mg/m^2, glazed tile; for mortality at 20 mg/m2: surface concentration 20 mg/m^2, glazed tile
Procedure, shortened: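 Compound dissolved in acetone (2 mg/ml) with 2000 ppm rapeseed oil methyl ester and pipetted onto glazed tile; after acetone evaporation, adult flies exposed to dried surface for 30 minutes. Mortality (%) scored 24 hours after contact.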

| SMILES | pest or weed control at 5 µg/cm2 (Rhipicephalus microplus [1]) [%] | pest or weed control at 5 µg/cm2 (Ctenocephalides felis [2]) [%] | pest or weed control at 5 µg/cm2, 500 g/ha (Rhipicephalus sanguineus) [%] | mortality at 100 g/ha (Nezara viridula) [%] | mortality at 0.8 ppm (Myzus persicae [3]) [%] | mortality at 4 ppm (Myzus persicae [3]) [%] | pest or weed control at 32 µg/disc, 100 g/ha (Diabrotica balteata) [%] | mortality at 100 g/ha (Spodoptera frugiperda) [%] | mortality at 100 g/ha (Myzus persicae [4]) [%] | mortality at 500 g/ha (Nezara viridula) [%] | pest or weed control at 1 µg/cm2, 100 g/ha (Rhipicephalus sanguineus) [%] | pest or weed control at 0.004 mg (Rhipicephalus microplus [5]) [%] | mortality at 100 ppm (Ctenocephalides felis [6]) [%] | mortality at 20 mg/m2 [7] [%] | pest or weed control at 0.02 mg (Rhipicephalus microplus [5]) [%] | mortality at 4 mg/m2 [8] [%] | mortality at 20 mg/m2 [8] [%] | pest or weed control at 160 µg/disc, 500 g/ha (Diabrotica balteata; application rate 500 g/ha (=160 μg/well)) [%] | mortality at 500 g/ha (Spodoptera frugiperda) [%] | mortality at 500 g/ha (Myzus persicae [4]; read-out: activity (mortality), application rate 500 g/ha, spray, Chinese cabbage leaf disks, after 5 days) [%] |
| --- | --- | --- | --- | --- | --- | --- | --- | --- | --- | --- | --- | --- | --- | --- | --- | --- | --- | --- | --- | --- |
| Cc1nc([C@H](C)NC(=O)c2cc(OC(F)F)cc(OC(F)F)c2)n(-c2ccc(C#N)cn2)n1 [II-115] | 100 | 90 | 100 | 100 | 100 | 100 | 100 | 100 | 90 | – | – | – | – | – | – | – | – | – | – | – |
| COc1nc([C@H](C)NC(=O)c2cc(OC(F)F)cc(C(F)F)c2)n(-c2ccc(C#N)cn2)n1 [I-65] | 100 | – | 80 | – | – | 100 | 100 | 100 | 90 | 100 | – | – | – | – | – | – | – | – | – | – |
| Cc1nc([C@H](C)NC(=O)c2cc(Br)cc(OC(F)(F)F)c2)n(-c2cc(C#N)ccn2)n1 [II-106] | 100 | 90 | 100 | – | – | 100 | 100 | 100 | 90 | – | 100 | 100 | 100 | – | – | – | – | – | – | – |
| C[C@H](NC(=O)c1cc(C(F)(F)F)cc(C(F)(F)F)c1)c1nc(C(C)(C)C)nn1-c1ccc(C#N)cn1 [I-37] | 100 | – | 100 | 100 | – | – | 100 | 100 | 90 | – | 100 | 100 | – | 80 to 100 | 100 | 80 to 100 | 80 to 100 | – | – | – |
| CCSc1cc(C#N)cc(C(=O)N[C@@H](C)c2ncnn2-c2ccc(C#N)cn2)c1 [II-109] | 100 | 100 | 100 | 100 | 90 | 100 | 100 | – | 90 | – | 100 | 100 | – | – | – | – | – | – | – | – |
| Cc1nc([C@H](C)NC(=O)c2cc(C(F)(F)F)cc(C(F)(F)F)c2)n(-c2ccc(C(=O)N(C)C(C)C)cn2)n1 [II-92] | 100 | 100 | 100 | 90 | – | 100 | – | 100 | 90 | – | 100 | 100 | – | – | – | – | – | – | – | – |
| Cc1nc([C@H](C)NC(=O)c2cc(C(F)(F)F)cc(C(F)(F)F)c2)n(-c2ccc(C(=O)N(C)C)cn2)n1 [II-100] | 100 | 100 | 100 | 100 | 100 | 100 | – | 100 | 100 | – | 100 | 100 | – | – | – | – | – | – | – | – |
| COc1nc([C@H](C)NC(=O)c2cc(OC(F)F)cc(OC(F)F)c2)n(-c2ccc(C#N)cn2)n1 [I-64] | 100 | 90 | 80 | 90 | 100 | 100 | 100 | 100 | 90 | 100 | – | – | – | – | – | – | – | – | – | – |
| C[C@H](NC(=O)c1cc(C(F)(F)F)cc(C(F)(F)F)c1)c1ncnn1-c1ncc(I)s1 [II-39] | 100 | – | 100 | – | – | – | 100 | 100 | – | 90 | 100 | 100 | – | 80 to 100 | 100 | 80 to 100 | 80 to 100 | 100 | 100 | 100 |
